Assay results: paper PMC6177136, “Hybrid topoisomerase I and HDAC inhibitors as dual action anticancer agents” (PLoS ONE, 2018)

Tests used:
MM432 = experiment: Cytotoxicity assay, primary mesothelioma MM432; type: cell-based, Human; conditions: sarcomatoid, 72 h, SBR assay; read-out: IC50 ± SD MM432
MM472 = experiment: Cytotoxicity assay, primary mesothelioma MM472; type: cell-based, Human; conditions: sarcomatoid, 72 h, SBR assay; read-out: IC50 ± SD MM472
MM317 = experiment: Cytotoxicity assay, primary mesothelioma MM317; type: cell-based, Human; conditions: epithelioid, 72 h, SBR assay; read-out: IC50 ± SD MM317
MM487 = experiment: Cytotoxicity assay, primary mesothelioma MM487; type: cell-based, Human; conditions: biphasic, 72 h, SBR assay; read-out: IC50 ± SD MM487
MM473 = experiment: Cytotoxicity assay, primary mesothelioma MM473; type: cell-based, Human; conditions: epithelioid, 72 h, SBR assay; read-out: IC50 ± SD MM473
MM404 = experiment: Cytotoxicity assay, primary mesothelioma MM404; type: cell-based, Human; conditions: epithelioid, 72 h, SBR assay; read-out: IC50 ± SD MM404
MM481 = experiment: Cytotoxicity assay, primary mesothelioma MM481; type: cell-based, Human; conditions: epithelioid, 72 h, SBR assay; read-out: IC50 ± SD MM481
MM491 = experiment: Cytotoxicity assay, primary mesothelioma MM491; type: cell-based, Human; conditions: biphasic, 72 h, SBR assay; read-out: IC50 ± SD MM491
MM288 = experiment: Cytotoxicity assay, primary mesothelioma MM288; type: cell-based, Human; conditions: epithelioid, 72 h, SBR assay; read-out: IC50 ± SD MM288
Acetylated Tubulin = experiment: Western blot, acetylation of tubulin in NCI-H460 cells; type: cell-based, Human; conditions: 24 h; SN38 0.05 μM, SAHA 5 μM, 3b and 3d 0.125–0.2–0.5 μM
Method: (§1) The supernatant, containing the total proteins extracts, were transferred in new vials. The protein concentration was measured by Bradford Protein Assay. Equal amounts of proteins for each sample were then resolved by SDS-PAGE and loaded on 10–12% polyacrilamide gels. The proteins were then transferred on nitrocellulose membranes. Molecular weights were estimated based upon the relative migration with molecular weight protein markers.
(§2) The non-specific binding was blocked by incubation of membranes in TBS-tween (25 mM Tris, 150 mM NaCl, 0.1% Tween 20) with 5% nonfat dry milk (BIORAD, Milan) for 60 minutes. Subsequently, the membrane was incubated overnight with primary antibodies: anti-Histone H4 (Millipore, 1:500), anti-acetyl-H4 (Santa Cruz, 1:1000) anti-p21 (Santa Cruz, 1:1000), anti-acetyl-tubulin (abcam, 1:1000), anti-α-tubulin (Sigma, 1:5000), anti β-actin (Sigma, 1:5000) and anti-Topoisomerase 1 (Santa Cruz, 1:500). After three washes with TBST blots were incubated with HRP-coniugated secondary anti-mouse and anti-rabbit (Santa Cruz, 1:5000) 1 hour at room temperature. After three washes with TBST the blots were developed with ECL substrate (GE Healthcare) and chemiluminescence detected by ChemiDoc Imaging System (Biorad). The optical density of the protein bands detected by western blotting was normalized on α -tubulin levels and analyzed by ChemiDoc software (Biorad). […]

HDAC6 = HDAC6 (Homo sapiens, UniProt Q9UBN7); experiment: HDAC profiling HDAC6; type: biochemical; conditions: purified isoform, 10 concentrations from 10 μM, triplicate
Sequence of HDAC6 (Q9UBN7 whole entry, canonical isoform): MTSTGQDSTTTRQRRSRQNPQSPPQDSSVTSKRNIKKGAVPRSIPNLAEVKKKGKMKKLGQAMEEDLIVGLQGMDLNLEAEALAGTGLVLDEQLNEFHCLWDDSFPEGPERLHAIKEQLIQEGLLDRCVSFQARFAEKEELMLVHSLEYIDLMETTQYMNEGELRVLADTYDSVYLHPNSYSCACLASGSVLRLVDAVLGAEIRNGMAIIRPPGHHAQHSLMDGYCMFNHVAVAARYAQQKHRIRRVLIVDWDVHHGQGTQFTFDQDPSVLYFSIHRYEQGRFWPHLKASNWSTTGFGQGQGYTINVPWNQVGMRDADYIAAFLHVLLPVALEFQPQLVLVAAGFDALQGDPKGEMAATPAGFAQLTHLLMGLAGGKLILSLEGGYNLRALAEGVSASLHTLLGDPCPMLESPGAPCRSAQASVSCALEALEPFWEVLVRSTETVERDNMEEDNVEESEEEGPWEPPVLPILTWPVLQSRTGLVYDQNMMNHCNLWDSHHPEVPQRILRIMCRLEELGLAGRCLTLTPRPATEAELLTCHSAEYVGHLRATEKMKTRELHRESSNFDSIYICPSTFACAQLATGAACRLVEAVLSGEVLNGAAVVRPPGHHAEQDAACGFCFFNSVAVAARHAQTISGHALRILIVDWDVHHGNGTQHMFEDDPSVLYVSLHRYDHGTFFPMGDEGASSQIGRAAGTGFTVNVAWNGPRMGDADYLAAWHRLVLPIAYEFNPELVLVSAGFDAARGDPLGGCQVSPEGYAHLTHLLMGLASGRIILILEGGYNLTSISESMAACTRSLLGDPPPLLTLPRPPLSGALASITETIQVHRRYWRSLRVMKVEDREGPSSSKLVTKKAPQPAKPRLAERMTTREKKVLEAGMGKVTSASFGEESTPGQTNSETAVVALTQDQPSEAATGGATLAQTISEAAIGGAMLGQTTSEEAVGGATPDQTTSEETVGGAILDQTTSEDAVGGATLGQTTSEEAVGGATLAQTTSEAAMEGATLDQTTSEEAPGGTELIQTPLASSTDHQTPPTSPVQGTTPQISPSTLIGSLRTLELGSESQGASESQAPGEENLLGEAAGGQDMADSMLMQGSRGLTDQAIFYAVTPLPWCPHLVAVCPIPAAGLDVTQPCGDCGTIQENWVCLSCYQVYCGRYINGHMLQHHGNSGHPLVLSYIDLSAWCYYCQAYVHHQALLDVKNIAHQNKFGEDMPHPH

NCI-H460 = experiment: Cytotoxicity assay (SRB, 72 h) NCI-H460; type: cell-based, Human; conditions: Homo sapiens; for IC50: NCI-H460, 72 h, SRB assay, read-out: IC50 ± SD NCI-H460
Capan 1 = experiment: Cytotoxicity assay (SRB, 72 h) Capan 1; type: cell-based, Human; conditions: Homo sapiens, CAPAN-1, read-out: IC50 ± SD Capan 1
HDAC2 = HDAC2 (Homo sapiens, UniProt Q92769); experiment: HDAC profiling HDAC2; type: biochemical; conditions: purified isoform, 10 concentrations from 10 μM, triplicate
Sequence of HDAC2 (Q92769 whole entry, canonical isoform): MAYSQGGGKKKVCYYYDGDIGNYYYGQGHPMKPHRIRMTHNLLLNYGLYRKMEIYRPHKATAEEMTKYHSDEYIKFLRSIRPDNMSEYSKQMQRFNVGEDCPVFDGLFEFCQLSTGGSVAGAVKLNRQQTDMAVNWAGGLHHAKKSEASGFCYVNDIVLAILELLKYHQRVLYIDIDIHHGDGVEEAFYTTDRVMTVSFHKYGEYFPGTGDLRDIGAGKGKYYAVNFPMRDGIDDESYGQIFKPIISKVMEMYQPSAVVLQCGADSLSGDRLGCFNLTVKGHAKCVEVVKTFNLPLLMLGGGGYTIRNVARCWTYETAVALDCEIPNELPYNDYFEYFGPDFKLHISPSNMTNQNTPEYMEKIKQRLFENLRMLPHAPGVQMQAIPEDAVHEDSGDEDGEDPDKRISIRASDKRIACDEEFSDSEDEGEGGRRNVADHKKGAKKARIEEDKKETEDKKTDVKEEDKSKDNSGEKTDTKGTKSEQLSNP

HeLa = experiment: Cytotoxicity assay (SRB, 72 h) HeLa; type: cell-based, Human; conditions: Homo sapiens, HeLa, read-out: IC50 ± SD HeLa
A2780 = experiment: Cytotoxicity assay (SRB, 72 h) A2780; type: cell-based, Human; conditions: Homo sapiens, A2780, read-out: IC50 ± SD A2780
HDAC1 = HDAC1 (Homo sapiens, UniProt Q13547); experiment: HDAC profiling HDAC1; type: biochemical; conditions: purified isoform, 10 concentrations from 10 μM, triplicate
Sequence of HDAC1 (Q13547 whole entry, canonical isoform): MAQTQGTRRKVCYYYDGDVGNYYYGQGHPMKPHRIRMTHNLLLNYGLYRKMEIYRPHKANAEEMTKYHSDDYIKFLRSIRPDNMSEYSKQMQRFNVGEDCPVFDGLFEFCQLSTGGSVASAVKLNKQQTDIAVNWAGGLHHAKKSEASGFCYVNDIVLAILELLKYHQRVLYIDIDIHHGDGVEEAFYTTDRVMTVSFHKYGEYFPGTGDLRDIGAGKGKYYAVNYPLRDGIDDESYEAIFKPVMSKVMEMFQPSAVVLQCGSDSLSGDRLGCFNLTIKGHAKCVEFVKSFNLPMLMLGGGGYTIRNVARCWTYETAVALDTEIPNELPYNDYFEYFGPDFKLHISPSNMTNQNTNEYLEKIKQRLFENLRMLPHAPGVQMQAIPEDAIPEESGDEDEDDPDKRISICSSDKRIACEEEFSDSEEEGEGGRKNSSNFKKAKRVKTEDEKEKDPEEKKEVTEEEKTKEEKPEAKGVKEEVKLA

A2780-Dx = experiment: Cytotoxicity assay (SRB, 72 h) A2780-Dx; type: cell-based, Human; conditions: for RI (Resistance Index): A2780-Dx versus A2780; for IC50: Homo sapiens, A2780/DX, 72 h, SRB assay, multidrug-resistant ovarian carcinoma, read-out: IC50 ± SD A2780-Dx
Acetylated Histone H4 = experiment: Western blot, acetylation of histone H4 in NCI-H460 cells; type: cell-based, Human; conditions: 24 h; SN38 0.05 μM, SAHA 5 μM, 3b and 3d 0.125–0.2–0.5 μM
Method: as §1, §2

HDAC10 = HDAC10 (Homo sapiens, UniProt Q969S8); experiment: HDAC profiling HDAC10; type: biochemical; conditions: purified isoform, 10 concentrations from 10 μM, triplicate
Sequence of HDAC10 (Q969S8 whole entry, canonical isoform): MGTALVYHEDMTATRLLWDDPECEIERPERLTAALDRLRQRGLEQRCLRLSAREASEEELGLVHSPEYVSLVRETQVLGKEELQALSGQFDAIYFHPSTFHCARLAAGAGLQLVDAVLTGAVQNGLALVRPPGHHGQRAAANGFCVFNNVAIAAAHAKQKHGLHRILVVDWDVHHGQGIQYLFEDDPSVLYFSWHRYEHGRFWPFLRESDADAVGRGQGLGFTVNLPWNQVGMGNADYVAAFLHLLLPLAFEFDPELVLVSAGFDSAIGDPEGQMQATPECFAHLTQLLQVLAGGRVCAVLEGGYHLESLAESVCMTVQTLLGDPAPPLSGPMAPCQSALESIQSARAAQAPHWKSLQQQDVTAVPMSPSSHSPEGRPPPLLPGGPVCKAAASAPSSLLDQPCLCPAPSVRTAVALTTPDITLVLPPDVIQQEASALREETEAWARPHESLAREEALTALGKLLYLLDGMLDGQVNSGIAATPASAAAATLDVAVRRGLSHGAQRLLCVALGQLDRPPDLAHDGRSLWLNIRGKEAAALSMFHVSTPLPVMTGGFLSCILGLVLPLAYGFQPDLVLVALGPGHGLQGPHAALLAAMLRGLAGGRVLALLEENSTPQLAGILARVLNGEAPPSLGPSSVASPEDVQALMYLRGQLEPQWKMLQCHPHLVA

A431 = experiment: Cytotoxicity assay (SRB, 72 h) A431; type: cell-based, Human; conditions: Homo sapiens, A-431, read-out: IC50 ± SD A431

## N.N.[Cl][Pt][Cl] [Cisplatin]
MM432
  IC50: 5000 ± 800 nM
MM472
  IC50: 1260 ± 100 nM
MM317
  IC50: 4200 ± 600 nM
MM487
  IC50: 3000 ± 500 nM
MM473
  IC50: 2400 ± 200 nM
MM404
  IC50: 2400 ± 500 nM
MM481
  IC50: 7000 ± 1500 nM
MM491
  IC50: 6500 ± 900 nM
MM288
  IC50: 8100 ± 300 nM

## CC[C@@]1(O)C(=O)OCc2c1cc1n(c2=O)Cc2c-1nc1ccccc1c2C=NOCCCCCC(=O)NO [Compound 3b, 6-(camptothecin-7-ylmethyleneaminooxy)-hexanoic acid hydroxyamide]
Acetylated Tubulin
  accumulation of acetylated tubulin: less potent than 3d on both targets
HDAC6
  IC50: 3.87 nM
NCI-H460
  IC50: 23 ± 4 nM
NCI-H460; NCI-H460 cells
  IC80: 500 nM
Capan 1
  IC50: 6 ± 0.7 nM
HDAC2
  IC50: 76.2 nM
HeLa
  IC50: 160 ± 40 nM
A2780
  IC50: 8 ± 2 nM
HDAC1
  IC50: 43 nM
A2780-Dx
  RI (Resistance Index): 31.7
  IC50: 270 ± 70 nM
Acetylated Histone H4
  accumulation of acetylated histone H4: less potent than 3d on both targets, particularly on H4
HDAC10
  IC50: 99.9 nM
A431
  IC50: 4 ± 1 nM

## CC[C@@]1(O)C(=O)OCc2c1cc1n(c2=O)Cc2c-1nc1ccccc1c2C=NOCCCCCCNC(=O)CS [Compound 10, N-[camptothecin-7-yl-(methyleneaminooxy)-hexyl]-2-mercaptoacetamide]
NCI-H460
  IC50: 100 ± 10 nM
A2780
  IC50: 210 ± 50 nM
other
  melting point: 120 °C
A2780-Dx
  RI (Resistance Index): 1.7
  IC50: 350 ± 100 nM
